According to patent US5066794A, “Process for preparing a disaccharide derivative” (Daiichi Pharmaceutical Co., Ltd., priority 1990, dated 1991):

How the values were obtained:
[1] = test system: Japanese white rabbits; assay: Test I: local Shwartzman reaction induction activity; assay type: in vivo; conditions: 100 μg S. minnesota LPS i.v. 20 hours later
Experimental: The local Shwartzman reaction test (Test I) is examined to determine the phenomenon of necrosis, at the site where a test compound was injected, induced by intravenous injection of lipopolysaccharide (hereinafter referred to as LPS) after 20 hours from intracutaneous injection of the test compound to test animals, preferably in rabbits.
The test on Shwartzman reaction specific to endotoxin was carried out as follows using Japanese white rabbits (female, weighing around 3 kg). That is, Japanese domestic white rabbits were intracutaneously injected with the test compound. Twenty hours later, 100 μg of LPS extracted from Salmonella minnesota R595, Re-mutant was intravenously injected to each rabbit. The Shwartzman reaction-induction activity was expressed in terms of number of animals that suffered from hemorrhagic necrosis at the site that had been prepared by intracutaneous injection of the test compound.

[2] = test system: murine lymphocytes (splenocytes); assay: Mitogenicity: stimulation of [^3 H]-labeled thymidine uptake into isolated murine lymphocytes (splenocytes); assay type: cell-based, BALB/c nu/nu mice; conditions: Mus musculus, Splenocyte, 48 hours, 37° C., read-out: Stimulation Index ± S.E. of mitogenicity ([^3 H]-labeled thymidine uptake; T/C)
Experimental: Spleen of BALB/c nu/nu mice (male; 8-week old) was minced, and lymphocytes collected from the minced spleen were incubated with graded doses of test compounds in RPMI 1640 medium without fetal bovine serum at 37° C. at a concentration of 1×10^5 to 1×10^6 lymphocytes per ml for 48 hours. Twenty-four hours before the completion of the incubation, [^3 H]-labeled thymidine (manufactured by New England Nuclear) was added to the culture. After the completion of the incubation, cells were collected on glass microfiber paper and dried, and the radioactivity of [^3 H]-labeled thymidine incorporated into the cells was measured. The ratio of thymidine uptake in the test culture to which the test compound had been added to that in the respective control culture was determined as a stimulation index. The higher the stimulation index, the higher the mitogenicity.

[3] = test system: Japanese domestic white rabbits; assay: Test II: pyrogenicity test (body temperature increase in rabbits); conditions: 0.1 μg/kg intravenous; febrile = temperature increase of 0.6° C. or more
Experimental: The pyrogenicity of the compounds of this invention was determined in terms of body temperature increase in rabbits after intravenous injection of the test compound in accordance with the test method of pyrogenicity defined in Japanese Pharmacopoeia. That is, the rectal temperatures of Japanese domestic white rabbits (body weight: 2 to 2.5 kg) were measured 3 times at one-hour intervals. When the temperature in the second and third measurements were substantially equal, the third temperature was taken as a reference temperature. Within 15 minutes after the third measurement, the test compound dissolved in pyrogen-free distilled water was injected in the ear vein, and the rectal temperature was measured 3 times at one-hour intervals after injection. A difference between the reference temperature and the maximum temperature was taken as an increase of body temperature, and the pyrogenicity of the test compound was expressed by the number of febrile animals showing a temperature increase of 0.6° C. or more.

SMILES | Shwartzman reaction-induction activity: Number of Necrosed Animals/Number of Tested Animals ([1]; 20 μg/site intracutaneous) | fold induction at 0.01 µg/mL ([2]; 0.01 μg/ml) | fold induction at 0.1 µg/mL ([2]; 0.1 μg/ml) | fold induction at 1 µg/mL ([2]; 1 μg/ml) | Pyrogenicity: Number of Febrile Animals/Number of Tested Animals [3] | Shwartzman reaction-induction activity: Number of Necrosed Animals/Number of Tested Animals ([1]; 80 μg/site intracutaneous)
CCCCCCCCCCCCCC(=O)O[C@H](CCCCCCCCCCC)CC(=O)O[C@@H]1[C@@H](NC(=O)C[C@@H](CCCCCCCCCCC)OC(=O)CCCCCCCCCCC)[C@H](OC[C@H]2O[C@H](OP(=O)(O)O)[C@H](NC(=O)C[C@H](O)CCCCCCCCCCC)[C@@H](OC(=O)C[C@H](O)CCCCCCCCCCC)[C@@H]2O)O[C@H](CO)[C@H]1OP(=O)(O)O [Compound of Present Invention, 6-O-{2-Deoxy-2-[(R)-3-dodecanoyloxytetradecanoylamino]-3-O-[(R)-3-tetradecanoyloxytetradecanoyl]-4-O-phosphono-β-D-glucopyranosyl}-2-deoxy-2-[(R)-3-hydroxytetradecanoylamino]-3-O-[(R)-3-hydroxytetradecanoyl]-1-O-phosphono-α-D-glucopyranose] | 2/3 | 4.06 ± 0.35 | 9.05 ± 0.7 | 11.8 ± 0.13 | 3/4 | 
CCCCCCCCCCC[C@@H](O)CC(=O)N[C@H]1[C@H](OC[C@H]2O[C@H](OP(=O)(O)O)[C@H](NC(=O)C[C@H](O)CCCCCCCCCCC)[C@@H](OC(=O)C[C@H](O)CCCCCCCCCCC)[C@@H]2O)O[C@H](CO)[C@@H](OP(=O)(O)O)[C@@H]1OC(=O)C[C@H](O)CCCCCCCCCCC [Control Compound 1, 6-O-{2-Deoxy-2-[(R)-3-hydroxytetradecanoylamino]-3-O-[(R)-3-hydroxytetradecanoyl]-4-O-phosphono-β -D-glucopyranosyl}-2-deoxy-2-[(R)-3-hydroxytetradecanoylamino]-3-O-[(R)-3-hydroxytetradecanoyl]-1-O-phosphono-α-D-glucopyranose, reference compound] |  |  |  |  | 0/3 | 0/3
